The source made the active and inactive calls. No cut-off for these calls is given here.
Experiments:
[1] = Cytotoxicity against HUVEC cells assessed as inhibition of cell growth incubated for 72 hrs by MTT assay; format: toxicity, cell-based; details: human
[2] = Cytotoxicity against human GES1 cells assessed as inhibition of cell growth incubated for 72 hrs by MTT assay; format: toxicity, cell-based
[3] = target: Vascular endothelial growth factor receptor 2 (Homo sapiens, UniProt P35968); assay: Inhibition of VEGFR2 (unknown origin) at 1 uM by caliper mobility shift assay relative to control
[4] = target: T1, von Hippel-Lindau disease tumor suppressor/Vascular endothelial growth factor receptor 2 (Homo sapiens, UniProt P35968+P40337); assay: PROTAC activity at VHL/VEGFR2 in human HGC-27 cells assessed as induction of VEGFR2 degradation at 1 uM measured after 24 hrs by Western blot analysis relative to control; format: cell-based
[5] = target: T1, von Hippel-Lindau disease tumor suppressor/Vascular endothelial growth factor receptor 2; assay: PROTAC activity at VHL/VEGFR2 in human HGC-27 cells assessed as residual activity by measuring VEGFR2 expression level at 1 uM incubated for 24 hrs followed by compound washout and measured after 36 hrs by Western blot analysis relative to control; format: cell-based
[6] = target: T1, von Hippel-Lindau disease tumor suppressor/Vascular endothelial growth factor receptor 2; assay: PROTAC activity at VHL/VEGFR2 in human HGC-27 cells assessed as residual activity by measuring VEGFR2 expression level at 1 uM incubated for 24 hrs followed by compound washout and measured after 12 hrs by Western blot analysis relative to control; format: cell-based
[7] = target: T1, von Hippel-Lindau disease tumor suppressor/Vascular endothelial growth factor receptor 2; assay: PROTAC activity at VHL/VEGFR2 in human HGC-27 cells assessed as induction of VEGRF2 protein degradation at 1 uM preincubated with 4-Amino-N-(6-(1-(2-((4-methyl-3-(trifluoromethyl)phenyl)amino)-2-oxoethyl)-1H-pyrazol-4-y1)-1H-indazol-3-Abenzamide for 2 hrs followed by compound addition and measured after 24 hrs by Western blot analysis; format: cell-based
[8] = target: T1, von Hippel-Lindau disease tumor suppressor/Vascular endothelial growth factor receptor 2; assay: PROTAC activity at VHL/VEGFR2 in human HGC-27 cells assessed as induction of VEGRF2 protein degradation at 1 uM preincubated with MG-132 for 2 hrs followed by compound addition and measured after 24 hrs by Western blot analysis; format: cell-based
[9] = target: T1, von Hippel-Lindau disease tumor suppressor/Vascular endothelial growth factor receptor 2; assay: PROTAC activity at VHL/VEGFR2 in human HGC-27 cells assessed as induction of VEGRF2 protein degradation at 1 uM preincubated with MLN4924 for 2 hrs followed by compound addition and measured after 24 hrs by Western blot analysis; format: cell-based
[10] = target: T1, von Hippel-Lindau disease tumor suppressor/Vascular endothelial growth factor receptor 2; assay: PROTAC activity at VHL/VEGFR2 in human HGC-27 cells assessed as reduction in relative VEGRF2 expression level at 1 uM preincubated with MG-132 for 2 hrs followed by compound addition and measured after 24 hrs by Western blot analysis; format: cell-based
[11] = Effect on VEGFR2 mRNA expression in human HGC-27 cells at 0.033 uM incubated for 24 hrs by qPCR analysis relative to control; format: functional
HGC-27 [12] = assay: Antiinvasive activity in human HGC-27 cells assessed as reduction in number of invasive cells at 1 uM incubated for 24 hrs by transwell invasion assay (reference value: 118); format: functional
HGC-27 [13] = assay: Induction of apoptosis in human HGC-27 cells assessed as viable cells at 0.33 uM incubated for 24 hrs by Annexin V-FITC/PI staining based analysis (reference value: 95.3%); format: functional; details: read-out: Activity
HGC-27 [14] = assay: Induction of apoptosis in human HGC-27 cells assessed as early apoptotic cells at 0.33 uM incubated for 24 hrs by Annexin V-FITC/PI staining based analysis (reference value: 1.7 %); format: functional
HGC-27 [15] = assay: Induction of apoptosis in human HGC-27 cells assessed as viable cells at 1 uM incubated for 24 hrs by Annexin V-FITC/PI staining based analysis (reference value: 95.3%); format: functional; details: read-out: Activity
HGC-27 [16] = assay: Induction of apoptosis in human HGC-27 cells assessed as early apoptotic cells at 3.3 uM incubated for 24 hrs by Annexin V-FITC/PI staining based analysis (reference value: 1.7 %); format: functional
HGC-27 [17] = assay: Induction of cell cycle arrest in human HGC-27 cells assessed as G2/M phase cells at 0.033 uM incubated for 24 hrs by PI staining based flow cytometric analysis (reference value: 13.3%); format: functional
HGC-27 [18] = assay: Induction of cell cycle arrest in human HGC-27 cells assessed as G0/G1 phase cells at 0.1 uM incubated for 24 hrs by PI staining based flow cytometric analysis (reference value: 47.4%); format: functional
HGC-27 [19] = assay: Induction of cell cycle arrest in human HGC-27 cells assessed as G2/M phase cells at 0.33 uM incubated for 24 hrs by PI staining based flow cytometric analysis (reference value: 13.3%); format: functional
HGC-27 [20] = assay: Induction of cell cycle arrest in human HGC-27 cells assessed as S phase cells at 1 uM incubated for 24 hrs by PI staining based flow cytometric analysis (reference value: 26.4%); format: functional
HGC-27 [21] = assay: Induction of cell cycle arrest in human HGC-27 cells assessed as G2/M phase cells at 1 uM incubated for 24 hrs by PI staining based flow cytometric analysis (reference value: 13.3%); format: functional

T1 sequence (P35968 20-1356 limits assumed): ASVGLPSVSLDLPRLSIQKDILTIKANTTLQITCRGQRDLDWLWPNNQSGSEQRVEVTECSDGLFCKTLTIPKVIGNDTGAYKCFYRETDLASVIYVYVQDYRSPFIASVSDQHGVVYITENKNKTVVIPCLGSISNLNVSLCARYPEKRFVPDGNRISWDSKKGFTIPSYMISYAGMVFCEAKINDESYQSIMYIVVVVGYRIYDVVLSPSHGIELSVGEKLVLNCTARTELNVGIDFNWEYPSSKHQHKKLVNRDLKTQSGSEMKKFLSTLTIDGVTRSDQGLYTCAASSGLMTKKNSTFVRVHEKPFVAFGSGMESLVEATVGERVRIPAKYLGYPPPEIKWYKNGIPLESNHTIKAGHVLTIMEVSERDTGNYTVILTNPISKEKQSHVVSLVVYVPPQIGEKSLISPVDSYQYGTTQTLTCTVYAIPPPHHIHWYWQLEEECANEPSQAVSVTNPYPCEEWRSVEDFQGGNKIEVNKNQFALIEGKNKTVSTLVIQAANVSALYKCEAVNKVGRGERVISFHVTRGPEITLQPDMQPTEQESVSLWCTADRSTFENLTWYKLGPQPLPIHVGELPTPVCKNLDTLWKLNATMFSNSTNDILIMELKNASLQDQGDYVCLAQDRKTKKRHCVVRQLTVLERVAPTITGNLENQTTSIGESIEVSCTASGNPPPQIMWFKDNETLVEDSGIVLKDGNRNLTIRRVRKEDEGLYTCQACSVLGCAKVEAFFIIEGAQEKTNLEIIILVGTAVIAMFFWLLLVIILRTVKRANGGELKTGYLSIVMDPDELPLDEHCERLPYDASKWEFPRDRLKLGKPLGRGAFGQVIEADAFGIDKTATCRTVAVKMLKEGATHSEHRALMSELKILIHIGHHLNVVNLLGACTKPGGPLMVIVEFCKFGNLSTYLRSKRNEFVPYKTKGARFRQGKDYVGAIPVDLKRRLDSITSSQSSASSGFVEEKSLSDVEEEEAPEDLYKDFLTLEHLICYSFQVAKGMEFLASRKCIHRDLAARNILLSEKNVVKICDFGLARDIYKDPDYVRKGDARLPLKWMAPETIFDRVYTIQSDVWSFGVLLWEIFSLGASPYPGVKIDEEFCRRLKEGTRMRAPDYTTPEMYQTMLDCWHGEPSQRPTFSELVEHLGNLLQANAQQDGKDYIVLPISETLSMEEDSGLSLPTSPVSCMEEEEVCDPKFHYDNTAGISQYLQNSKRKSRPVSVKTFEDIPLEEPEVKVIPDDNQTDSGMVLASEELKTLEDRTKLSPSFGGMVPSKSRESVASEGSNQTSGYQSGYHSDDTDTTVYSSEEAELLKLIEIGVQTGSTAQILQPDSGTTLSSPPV
T1 sequence (P40337 whole entry partner): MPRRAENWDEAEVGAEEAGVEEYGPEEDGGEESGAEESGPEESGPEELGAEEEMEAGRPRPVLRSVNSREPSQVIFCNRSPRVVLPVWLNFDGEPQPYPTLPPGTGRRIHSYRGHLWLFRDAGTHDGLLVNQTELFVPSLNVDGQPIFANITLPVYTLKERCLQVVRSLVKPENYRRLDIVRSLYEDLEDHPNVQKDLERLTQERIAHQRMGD
Sequence of Vascular endothelial growth factor receptor 2 (P35968 whole entry): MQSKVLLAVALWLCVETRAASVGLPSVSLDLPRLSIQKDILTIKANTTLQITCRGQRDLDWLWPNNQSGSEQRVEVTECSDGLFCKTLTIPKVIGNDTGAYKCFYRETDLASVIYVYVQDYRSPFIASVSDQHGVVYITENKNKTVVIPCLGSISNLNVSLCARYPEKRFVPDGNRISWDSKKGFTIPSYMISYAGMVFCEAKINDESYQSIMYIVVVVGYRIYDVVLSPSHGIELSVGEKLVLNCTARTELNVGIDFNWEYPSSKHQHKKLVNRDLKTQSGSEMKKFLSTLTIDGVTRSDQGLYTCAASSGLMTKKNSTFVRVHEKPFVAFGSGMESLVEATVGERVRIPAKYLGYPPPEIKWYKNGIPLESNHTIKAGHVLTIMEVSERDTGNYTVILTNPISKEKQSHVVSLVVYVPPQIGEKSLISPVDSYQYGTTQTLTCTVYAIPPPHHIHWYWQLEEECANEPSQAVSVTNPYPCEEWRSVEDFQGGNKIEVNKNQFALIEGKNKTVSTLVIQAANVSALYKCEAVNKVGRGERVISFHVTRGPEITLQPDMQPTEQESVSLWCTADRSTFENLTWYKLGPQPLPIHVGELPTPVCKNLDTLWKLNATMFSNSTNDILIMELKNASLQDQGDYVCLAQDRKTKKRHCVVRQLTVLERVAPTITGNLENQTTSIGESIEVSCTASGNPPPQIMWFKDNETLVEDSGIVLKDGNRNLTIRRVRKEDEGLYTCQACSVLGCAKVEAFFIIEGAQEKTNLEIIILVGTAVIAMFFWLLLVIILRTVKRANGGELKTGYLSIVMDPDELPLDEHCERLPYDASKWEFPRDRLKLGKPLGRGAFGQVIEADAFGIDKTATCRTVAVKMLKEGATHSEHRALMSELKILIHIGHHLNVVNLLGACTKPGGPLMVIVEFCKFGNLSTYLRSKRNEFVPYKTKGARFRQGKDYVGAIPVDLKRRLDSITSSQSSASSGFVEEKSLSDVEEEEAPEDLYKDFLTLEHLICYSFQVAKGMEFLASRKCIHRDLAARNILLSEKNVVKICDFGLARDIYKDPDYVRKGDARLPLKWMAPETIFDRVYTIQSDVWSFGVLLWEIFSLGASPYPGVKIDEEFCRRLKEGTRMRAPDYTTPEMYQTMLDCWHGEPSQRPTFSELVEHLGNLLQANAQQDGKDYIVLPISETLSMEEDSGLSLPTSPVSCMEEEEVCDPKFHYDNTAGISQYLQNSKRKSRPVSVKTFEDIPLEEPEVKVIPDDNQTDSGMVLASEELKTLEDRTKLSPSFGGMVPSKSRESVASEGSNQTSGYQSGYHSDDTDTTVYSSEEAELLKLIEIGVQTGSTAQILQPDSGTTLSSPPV

Cc1ccc(NC(=O)Cn2cc(-c3ccc4c(NC(=O)c5ccc(NC(=O)CCCCCCCCC(=O)N[C@H](C(=O)N6C[C@H](O)C[C@H]6C(=O)NCc6ccc(-c7scnc7C)cc6)C(C)(C)C)cc5)n[nH]c4c3)cn2)cc1C(F)(F)F
IC50 at 72 h [1]: 7.07 µM
IC50 at 72 h [2]: 20 µM
inhibition [3]: 97.5%
Activity [4]: 51.4%
Activity [5]: 131%
Activity [6]: 66.3%
Activity [7]: inactive
Activity [8]: inactive
Activity [9]: inactive
Activity [10]: inactive
Activity [11]: 99.3%
Activity (HGC-27 [12]): 11
viability at 0.33 µM (HGC-27 [13]): 89.1%
Activity (HGC-27 [14]): 3.2%
viability at 1 µM (HGC-27 [15]): 76.5%
Activity (HGC-27 [16]): 15%
Activity (HGC-27 [17]): 15.7%
Activity (HGC-27 [18]): 44.3%
Activity (HGC-27 [19]): 37.7%
Activity (HGC-27 [20]): 28.5%
Activity (HGC-27 [21]): 45.9%

From ChEMBL document CHEMBL5247592, “Discovery of novel VEGFR-2-PROTAC degraders based on the localization of lysine residues via recruiting VHL for the treatment of gastric cancer” (Eur J Med Chem, 2022)
